Earlier results, collected in US20260258086A1 (priority 2021, published 2026).

Details: in vivo; cited from earlier work

## CC[C@H](C)[C@@H]1NC(=O)CNC(=O)[C@@H]2Cc3c([nH]c4cc(O)ccc34)[S@+]([O-])CC(NC(=O)CNC1=O)C(=O)N[C@@H](CC(N)=O)C(=O)N1C[C@H](O)C[C@H]1C(=O)N[C@@H]([C@@H](C)[C@@H](O)CO)C(=O)N2 [α-amanitin]
  toxicity: 0.05 to 0.1 mg/kg
